Assay results from patent US9012443B2 (Amgen Inc., priority 2011, dated 2015).
Where two headings read alike, the source gives them in different places.

What was measured:
[1] = molecular target: Nav 1.7 (Homo sapiens (Human), UniProt Q15858); assay: Nav 1.7 in vitro PX assay (PatchXpress whole cell voltage clamp); assay type: cell-based; details: 293 cells, human Nav1.7, partially inactivated state; read-out: Nav1.7 PX IC50 IP
Procedure, shortened: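 HEK293 cells stably expressing human Nav1.7, whole-cell voltage clamp on PatchXpress, held at potential giving 20–50% inactivation; current elicited by 20 msec pulse to −10 mV.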

[2] = molecular target: Nav 1.5 (Homo sapiens (Human), UniProt Q14524); assay: Nav 1.5 in vitro PX assay (PatchXpress whole cell voltage clamp); assay type: cell-based
Chain of Nav 1.5 (Q14524 whole entry): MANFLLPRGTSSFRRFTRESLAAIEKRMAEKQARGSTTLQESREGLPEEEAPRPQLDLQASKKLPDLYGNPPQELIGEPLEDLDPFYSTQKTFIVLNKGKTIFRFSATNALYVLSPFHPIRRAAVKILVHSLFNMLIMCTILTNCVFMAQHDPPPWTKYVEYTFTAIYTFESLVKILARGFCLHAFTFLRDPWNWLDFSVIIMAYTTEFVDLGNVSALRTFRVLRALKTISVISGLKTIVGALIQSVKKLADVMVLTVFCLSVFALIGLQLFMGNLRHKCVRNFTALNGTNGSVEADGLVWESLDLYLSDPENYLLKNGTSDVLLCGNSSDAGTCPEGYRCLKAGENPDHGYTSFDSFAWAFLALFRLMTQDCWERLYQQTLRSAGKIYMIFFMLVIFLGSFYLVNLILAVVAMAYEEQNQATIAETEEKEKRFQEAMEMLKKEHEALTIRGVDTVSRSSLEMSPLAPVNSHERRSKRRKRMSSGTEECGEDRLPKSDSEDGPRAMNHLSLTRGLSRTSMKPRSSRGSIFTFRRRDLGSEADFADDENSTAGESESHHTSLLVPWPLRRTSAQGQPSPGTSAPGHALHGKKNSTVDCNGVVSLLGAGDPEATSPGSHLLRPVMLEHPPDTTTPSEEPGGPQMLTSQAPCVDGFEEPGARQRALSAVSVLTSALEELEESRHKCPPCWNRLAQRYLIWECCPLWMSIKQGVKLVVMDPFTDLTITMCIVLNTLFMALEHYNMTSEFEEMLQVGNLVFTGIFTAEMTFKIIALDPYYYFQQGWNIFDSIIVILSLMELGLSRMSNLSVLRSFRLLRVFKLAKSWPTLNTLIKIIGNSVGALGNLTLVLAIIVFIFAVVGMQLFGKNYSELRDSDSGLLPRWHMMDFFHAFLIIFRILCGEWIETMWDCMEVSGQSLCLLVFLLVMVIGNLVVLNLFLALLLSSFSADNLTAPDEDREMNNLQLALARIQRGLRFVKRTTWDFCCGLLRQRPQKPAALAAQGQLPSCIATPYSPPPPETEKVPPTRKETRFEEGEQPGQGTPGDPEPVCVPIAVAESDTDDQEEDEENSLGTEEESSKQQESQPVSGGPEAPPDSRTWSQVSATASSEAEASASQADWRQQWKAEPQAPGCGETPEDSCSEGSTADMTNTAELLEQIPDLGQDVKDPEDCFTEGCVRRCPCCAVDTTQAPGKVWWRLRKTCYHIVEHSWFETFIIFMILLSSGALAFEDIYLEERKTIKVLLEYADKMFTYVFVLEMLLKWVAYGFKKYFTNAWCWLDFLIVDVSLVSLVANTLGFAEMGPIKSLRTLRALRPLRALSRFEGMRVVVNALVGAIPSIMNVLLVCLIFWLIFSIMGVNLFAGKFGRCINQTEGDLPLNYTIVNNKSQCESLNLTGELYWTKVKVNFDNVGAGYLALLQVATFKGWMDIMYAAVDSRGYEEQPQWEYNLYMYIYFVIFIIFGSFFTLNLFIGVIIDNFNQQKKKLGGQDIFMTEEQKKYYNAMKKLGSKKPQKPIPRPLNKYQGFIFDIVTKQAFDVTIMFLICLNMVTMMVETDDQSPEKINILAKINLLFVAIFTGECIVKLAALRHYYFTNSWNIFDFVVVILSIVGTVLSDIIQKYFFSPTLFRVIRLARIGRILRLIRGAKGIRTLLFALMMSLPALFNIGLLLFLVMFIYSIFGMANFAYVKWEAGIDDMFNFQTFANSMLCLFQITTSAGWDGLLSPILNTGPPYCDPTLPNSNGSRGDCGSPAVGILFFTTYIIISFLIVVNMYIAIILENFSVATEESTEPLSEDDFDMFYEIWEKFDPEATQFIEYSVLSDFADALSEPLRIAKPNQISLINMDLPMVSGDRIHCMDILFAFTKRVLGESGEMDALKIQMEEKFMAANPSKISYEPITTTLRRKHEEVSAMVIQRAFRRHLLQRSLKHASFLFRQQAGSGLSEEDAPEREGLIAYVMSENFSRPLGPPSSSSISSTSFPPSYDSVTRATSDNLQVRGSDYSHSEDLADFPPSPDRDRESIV
Procedure, shortened: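 HEK293 cells stably expressing Nav 1.5, whole-cell voltage clamp held at −50 mV; 20 msec test pulses to 0 mV at 0.1 Hz, each preceded by a step to −120 mV.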

[3] = 293 cells stably transfected with Nav 1.5, second part of table, read-out: Nav1.5 PX IC50

Chain of Nav 1.7 (Q15858 whole entry): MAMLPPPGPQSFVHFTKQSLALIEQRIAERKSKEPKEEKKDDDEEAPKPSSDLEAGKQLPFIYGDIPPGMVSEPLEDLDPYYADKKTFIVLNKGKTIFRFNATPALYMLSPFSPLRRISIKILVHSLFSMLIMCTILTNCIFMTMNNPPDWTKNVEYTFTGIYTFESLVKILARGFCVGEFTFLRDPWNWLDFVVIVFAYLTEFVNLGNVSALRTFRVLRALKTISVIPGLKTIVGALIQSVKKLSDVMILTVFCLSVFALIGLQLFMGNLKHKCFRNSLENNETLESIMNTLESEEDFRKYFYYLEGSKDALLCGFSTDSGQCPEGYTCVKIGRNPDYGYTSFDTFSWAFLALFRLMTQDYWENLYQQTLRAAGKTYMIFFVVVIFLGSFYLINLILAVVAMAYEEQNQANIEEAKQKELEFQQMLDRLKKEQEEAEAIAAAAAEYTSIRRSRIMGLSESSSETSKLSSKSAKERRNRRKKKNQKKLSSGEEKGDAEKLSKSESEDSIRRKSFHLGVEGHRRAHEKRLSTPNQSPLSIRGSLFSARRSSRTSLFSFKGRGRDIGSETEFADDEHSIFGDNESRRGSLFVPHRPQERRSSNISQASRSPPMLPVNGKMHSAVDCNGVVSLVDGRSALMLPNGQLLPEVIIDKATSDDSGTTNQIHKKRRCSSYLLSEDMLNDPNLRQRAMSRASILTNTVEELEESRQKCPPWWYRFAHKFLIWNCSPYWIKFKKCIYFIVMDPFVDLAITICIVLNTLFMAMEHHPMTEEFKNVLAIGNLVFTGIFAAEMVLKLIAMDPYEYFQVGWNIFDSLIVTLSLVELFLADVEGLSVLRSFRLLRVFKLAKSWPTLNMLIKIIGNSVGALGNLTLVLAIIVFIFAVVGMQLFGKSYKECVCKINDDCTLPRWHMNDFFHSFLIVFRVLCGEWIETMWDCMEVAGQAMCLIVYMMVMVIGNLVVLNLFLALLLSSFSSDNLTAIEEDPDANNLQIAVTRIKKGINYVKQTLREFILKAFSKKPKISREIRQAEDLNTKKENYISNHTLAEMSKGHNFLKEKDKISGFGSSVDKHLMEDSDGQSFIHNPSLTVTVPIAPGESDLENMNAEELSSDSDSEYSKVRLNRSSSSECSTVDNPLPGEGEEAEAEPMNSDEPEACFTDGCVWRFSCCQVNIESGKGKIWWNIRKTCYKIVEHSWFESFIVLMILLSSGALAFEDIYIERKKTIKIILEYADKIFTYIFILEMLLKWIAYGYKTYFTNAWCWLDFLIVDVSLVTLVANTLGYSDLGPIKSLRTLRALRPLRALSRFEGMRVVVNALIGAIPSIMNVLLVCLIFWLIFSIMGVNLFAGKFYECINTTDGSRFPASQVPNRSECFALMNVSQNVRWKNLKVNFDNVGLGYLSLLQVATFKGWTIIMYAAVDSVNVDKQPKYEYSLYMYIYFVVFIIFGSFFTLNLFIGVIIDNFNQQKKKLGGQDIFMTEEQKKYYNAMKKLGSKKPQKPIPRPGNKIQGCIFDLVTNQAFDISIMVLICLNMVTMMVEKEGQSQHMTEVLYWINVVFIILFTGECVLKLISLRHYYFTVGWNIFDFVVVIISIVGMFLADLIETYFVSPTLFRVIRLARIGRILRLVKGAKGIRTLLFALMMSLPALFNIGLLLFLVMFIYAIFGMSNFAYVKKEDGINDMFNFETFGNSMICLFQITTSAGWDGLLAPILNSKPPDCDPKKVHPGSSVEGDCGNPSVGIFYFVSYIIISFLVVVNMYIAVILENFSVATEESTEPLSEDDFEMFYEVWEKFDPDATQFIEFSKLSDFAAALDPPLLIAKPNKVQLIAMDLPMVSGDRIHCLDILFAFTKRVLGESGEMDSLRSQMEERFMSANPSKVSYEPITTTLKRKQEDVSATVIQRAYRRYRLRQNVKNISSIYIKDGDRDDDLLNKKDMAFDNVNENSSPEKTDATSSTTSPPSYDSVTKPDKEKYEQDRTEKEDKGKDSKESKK

Row | Structure (SMILES) | IC50 [1] | IC50 [2, 3] | IC50 [2]
1 | COc1ccccc1-c1ccc(-c2nccc3cc(S(=O)(=O)Nc4ccncn4)ccc23)c(OC)c1 [Example 466, 1-(2′,3-DIMETHOXY-[1,1′-BIPHENYL]-4-YL)-N-(PYRIMIDIN-4-YL)ISOQUINOLINE-6-SULFONAMIDE] | 227 nM | > 30000 nM | –
2 | Cc1cc(Cl)ccc1-c1ccnc2cc(S(=O)(=O)Nc3ncns3)ccc12 [Example 322] | 333 nM | > 30000 nM | –
3 | COc1ccccc1-c1c(C#N)cnc2cc(S(=O)(=O)Nc3nccs3)ccc12 [Example 324, 3-CYANO-4-(2-METHOXYPHENYL)-N-(THIAZOL-2-YL)QUINOLINE-7-SULFONAMIDE] | 662 nM | > 30000 nM | –
4 | COc1ccc(-c2cccc(F)c2)cc1-c1ccnc2cc(S(=O)(=O)Nc3ccncn3)ccc12 [Example 321, 4-(3′-FLUORO-4-METHOXY-[1,1′-BIPHENYL]-3-YL)-N-(PYRIMIDIN-4-YL)QUINOLINE-7-SULFONAMIDE] | 251 nM | > 30000 nM | –
5 | COc1ccc(Cl)cc1-c1n[nH]c(=O)c2cc(S(=O)(=O)Nc3nccs3)ccc12 [Example 501, 1-(5-CHLORO-2-METHOXYPHENYL)-4-OXO-N-(THIAZOL-2-YL)-3,4-DIHYDROPHTHALAZINE-6-SULFONAMIDE] | 124 nM | – | > 30000 nM
6 | COc1cc(-c2c(F)cccc2F)ccc1-c1nccc2cc(S(=O)(=O)Nc3ccncn3)ccc12 [Example 447, 1-(2′,6′-DIFLUORO-3-METHOXY-[1,1′-BIPHENYL]-4-YL)-N-(PYRIMIDIN-4-YL)ISOQUINOLINE-6-SULFONAMIDE] | 237 nM | > 30000 nM | –
7 | COc1nc(-c2cccc(F)c2)c(Cl)cc1-c1nccc2cc(S(=O)(=O)Nc3nncs3)ccc12 [Example 498, 1-(5-CHLORO-6-(3-FLUOROPHENYL)-2-METHOXYPYRIDIN-3-YL)-N-(1,3,4-THIADIAZOL-2-YL)ISOQUINOLINE-6-SULFONAMIDE] | 760 nM | > 30000 nM | –
8 | COc1cc(Cl)c(C#N)cc1-c1nccc2cc(S(=O)(=O)Nc3ncns3)ccc12 [Example 336, 1-(4-CHLORO-5-CYANO-2-METHOXYPHENYL)-N-(1,2,4-THIADIAZOL-5-YL)ISOQUINOLINE-6-SULFONAMIDE] | 156 nM | > 30000 nM | –
9 | COc1cc(-c2ccc(C)cc2)ccc1-c1nccc2cc(S(=O)(=O)Nc3ccncn3)ccc12 [Example 443, 1-(3-METHOXY-4′-METHYL-[1,1′-BIPHENYL]-4-YL)-N-(PYRIMIDIN-4-YL)ISOQUINOLINE-6-SULFONAMIDE] | 280 nM | > 30000 nM | –
10 | COc1cc(C(F)(F)F)ccc1-c1ncc(O)c2cc(S(=O)(=O)Nc3nccs3)ccc12 [Example 232, 4-HYDROXY-1-(2-METHOXY-4-(TRIFLUOROMETHYL)PHENYL)-N-(THIAZOL-2-YL)ISOQUINOLINE-6-SULFONAMIDE] | 380 nM | 20400 nM | –
11 | COc1cc(-c2cc(F)cc(C#N)c2)ccc1-c1nccc2cc(S(=O)(=O)Nc3ccncn3)ccc12 [Example 487, 1-(3′-CYANO-5′-FLUORO-3-METHOXY-[1,1′-BIPHENYL]-4-YL)-N-(PYRIMIDIN-4-YL)ISOQUINOLINE-6-SULFONAMIDE] | 287 nM | > 30000 nM | –
12 | COc1ccccc1-c1cncc2cc(S(=O)(=O)Nc3nccs3)ccc12 [Example 289, 4-(2-methoxyphenyl)-N-(thiazol-2-yl)isoquinoline-7-sulfonamide] | 340 nM | > 30000 nM | –
13 | N#CCOc1ccccc1-c1ncc(F)c2cc(S(=O)(=O)Nc3nccs3)ccc12 [Example 398, 1-(2-(CYANOMETHOXY)PHENYL)-4-FLUORO-N-(THIAZOL-2-YL)ISOQUINOLINE-6-SULFONAMIDE] | 197 nM | > 30000 nM | –

Continued by falling IC50 [1], values first:

Row | IC50 [1] | Structure (SMILES) | IC50 [2, 3] | IC50 [2]
14 | 155 nM | COc1ccccc1-c1ccnc2cc(S(=O)(=O)Nc3ncns3)ccc12 [Example 320, 4-(2-METHOXYPHENYL)-N-(1,2,4-THIADIAZOL-5-YL)QUINOLINE-7-SULFONAMIDE 2,2,2-TRIFLUOROACETATE] | > 30000 nM | –
15 | 122 nM | COc1cc(Cl)ccc1-c1nccc2cc(S(=O)(=O)Nc3ncns3)ccc12 [Example 368, 1-(4-CHLORO-2-METHOXYPHENYL)-N-(1,2,4-THIADIAZOL-5-YL)ISOQUINOLINE-6-SULFONAMIDE] | > 30000 nM | –
16 | 111 nM | COc1cc(C(F)(F)F)ccc1-c1ncc(F)c2cc(S(=O)(=O)Nc3ncns3)ccc12 [Example 392, 4-FLUORO-1-(2-METHOXY-4-(TRIFLUOROMETHYL)PHENYL)-N-(1,2,4-THIADIAZOL-5-YL)ISOQUINOLINE-6-SULFONAMIDE] | > 30000 nM | –
17 | 102 nM | COc1ccc(-c2cccc(F)c2)cc1-c1nccc2cc(S(=O)(=O)Nc3ccncn3)ccc12 [Example 348, 1-(3′-FLUORO-4-METHOXY-[1,1′-BIPHENYL]-3-YL)-N-(PYRIMIDIN-4-YL)ISOQUINOLINE-6-SULFONAMIDE] | > 30000 nM | –
18 | 87 nM | COc1cc(-c2cccc(C)c2)ccc1-c1nccc2cc(S(=O)(=O)Nc3ccncn3)ccc12 [Example 442, 1-(3-METHOXY-3′-METHYL-[1,1′-BIPHENYL]-4-YL)-N-(PYRIMIDIN-4-YL)ISOQUINOLINE-6-SULFONAMIDE] | > 30000 nM | –
19 | 76 nM | COc1cc(-c2cccc(C(F)(F)F)c2)ccc1-c1nccc2cc(S(=O)(=O)Nc3ccncn3)ccc12 [Example 351, 1-(3-METHOXY-3′-(TRIFLUOROMETHYL)-[1,1′-BIPHENYL]-4-YL)-N-(PYRIMIDIN-4-YL)ISOQUINOLINE-6-SULFONAMIDE] | 26600 nM | –
20 | 65 nM | COc1cc(-c2cccc(F)c2)c(Cl)cc1-c1ncnc2cc(S(=O)(=O)Nc3ccncn3)ccc12 [Example 523, 4-(2-CHLORO-3′-FLUORO-5-METHOXY-[1,1′-BIPHENYL]-4-YL)-N-(PYRIMIDIN-4-YL)QUINAZOLINE-7-SULFONAMIDE] | 6590 nM | –
21 | 52 nM | COc1cc(-c2cccc(F)c2)c(Cl)cc1-c1nccc2cc(S(=O)(=O)Nc3ccon3)ccc12 [Example 335, 1-(2-CHLORO-3′-FLUORO-5-METHOXY-[1,1′-BIPHENYL]-4-YL)-N-(ISOXAZOL-3-YL)ISOQUINOLINE-6-SULFONAMIDE] | > 30000 nM | –
22 | 48 nM | COc1cc(-c2cccc(F)c2)c(F)cc1-c1nccc2cc(S(=O)(=O)Nc3nncs3)ccc12 [Example 366, 1-(2,3′-DIFLUORO-5-METHOXY-[1,1′-BIPHENYL]-4-YL)-N-(1,3,4-THIADIAZOL-2-YL)ISOQUINOLINE-6-SULFONAMIDE] | > 30000 nM | –
23 | 38 nM | COc1ccc(-c2cccc(C(F)(F)F)c2)cc1-c1nccc2cc(S(=O)(=O)Nc3ccncn3)ccc12 [Example 349, 1-(4-METHOXY-3′-(TRIFLUOROMETHYL)-[1,1′-BIPHENYL]-3-YL)-N-(PYRIMIDIN-4-YL)ISOQUINOLINE-6-SULFONAMIDE] | > 30000 nM | –
24 | 36 nM | COc1cc(-c2cc(F)cc(F)c2)c(F)cc1-c1nccc2cc(S(=O)(=O)Nc3nncs3)ccc12 [Example 364, N-(1,3,4-THIADIAZOL-2-YL)-1-(2,3′,5′-TRIFLUORO-5-METHOXY-[1,1′-BIPHENYL]-4-YL)ISOQUINOLINE-6-SULFONAMIDE] | > 30000 nM | –
25 | 28 nM | COc1cc(-c2cccc(F)c2)c(Cl)cc1-c1nccc2cc(S(=O)(=O)Nc3nncs3)ccc12 [Example 332, 1-(2-CHLORO-3′-FLUORO-5-METHOXY-[1,1′-BIPHENYL]-4-YL)-N-(1,3,4-THIADIAZOL-2-YL)ISOQUINOLINE-6-SULFONAMIDE] | 20700 nM | –
